Experimental data as given in the NIST ThermoML archive (doi:10.1016/j.fluid.2010.10.028).
± gives the expanded uncertainty stated by the source.

Assay: xn = mol fraction of the nth substance listed
Details: Liquid, Vibrating tube method

## CC(C)=O [acetone] + CCCCCCC
337.71 K, 24950 kPa, x1 = 0.4
  mass density: 746.11 ± 1.3 kg/m3
337.71 K, 24950 kPa, x1 = 0.8992
  mass density: 746.11 ± 1.2 kg/m3
337.71 K, 29870 kPa, x1 = 0.801
  mass density: 735.19 ± 1.3 kg/m3
337.71 K, 29930 kPa, x1 = 0.4
  mass density: 751.13 ± 1.3 kg/m3
337.71 K, 29930 kPa, x1 = 0.8992
  mass density: 751.13 ± 1.3 kg/m3
337.71 K, 34930 kPa, x1 = 0.4
  mass density: 755.89 ± 1.3 kg/m3
337.71 K, 34930 kPa, x1 = 0.8992
  mass density: 755.89 ± 1.3 kg/m3
337.71 K, 39920 kPa, x1 = 0.4
  mass density: 760.43 ± 1.3 kg/m3
337.71 K, 39920 kPa, x1 = 0.8992
  mass density: 760.43 ± 1.3 kg/m3
337.71 K, 44840 kPa, x1 = 0.492
  mass density: 715.3 ± 1.3 kg/m3
337.71 K, 49900 kPa, x1 = 0.4
  mass density: 768.86 ± 1.3 kg/m3
337.71 K, 49900 kPa, x1 = 0.8992
  mass density: 768.86 ± 1.3 kg/m3
337.71 K, 54890 kPa, x1 = 0.4
  mass density: 772.81 ± 1.4 kg/m3
337.71 K, 54890 kPa, x1 = 0.8992
  mass density: 772.81 ± 1.3 kg/m3
337.71 K, 64860 kPa, x1 = 0.4
  mass density: 780.28 ± 1.4 kg/m3
337.71 K, 64860 kPa, x1 = 0.8992
  mass density: 780.28 ± 1.4 kg/m3
337.71 K, 69930 kPa, x1 = 0.492
  mass density: 733.51 ± 1.4 kg/m3
337.71 K, 74770 kPa, x1 = 0.7024
  mass density: 757.51 ± 1.4 kg/m3
337.71 K, 74840 kPa, x1 = 0.4
  mass density: 787.15 ± 1.4 kg/m3
337.71 K, 74840 kPa, x1 = 0.8992
  mass density: 787.15 ± 1.4 kg/m3
337.71 K, 74910 kPa, x1 = 0.492
  mass density: 736.73 ± 1.5 kg/m3
337.71 K, 79750 kPa, x1 = 0.7024
  mass density: 760.71 ± 1.4 kg/m3
337.71 K, 79820 kPa, x1 = 0.4
  mass density: 790.43 ± 1.4 kg/m3
337.71 K, 79820 kPa, x1 = 0.8992
  mass density: 790.43 ± 1.4 kg/m3
337.71 K, 79900 kPa, x1 = 0.492
  mass density: 739.82 ± 1.5 kg/m3
337.71 K, 84890 kPa, x1 = 0.492
  mass density: 742.8 ± 1.5 kg/m3
337.71 K, 89860 kPa, x1 = 0.801
  mass density: 780.47 ± 1.4 kg/m3
337.71 K, 89870 kPa, x1 = 0.492
  mass density: 745.68 ± 1.5 kg/m3
337.71 K, 94760 kPa, x1 = 0.4
  mass density: 799.66 ± 1.5 kg/m3
337.71 K, 94760 kPa, x1 = 0.8992
  mass density: 799.66 ± 1.4 kg/m3
337.71 K, 94820 kPa, x1 = 0.611
  mass density: 759.24 ± 1.5 kg/m3
337.71 K, 94840 kPa, x1 = 0.492
  mass density: 748.47 ± 1.5 kg/m3
337.71 K, 94840 kPa, x1 = 0.801
  mass density: 783.46 ± 1.5 kg/m3
337.71 K, 99730 kPa, x1 = 0.4
  mass density: 802.55 ± 1.5 kg/m3
337.71 K, 99730 kPa, x1 = 0.8992
  mass density: 802.55 ± 1.4 kg/m3
337.71 K, 99820 kPa, x1 = 0.492
  mass density: 751.17 ± 1.6 kg/m3
337.71 K, 104700 kPa, x1 = 0.4
  mass density: 805.37 ± 1.5 kg/m3
337.71 K, 104700 kPa, x1 = 0.8992
  mass density: 805.37 ± 1.5 kg/m3
337.71 K, 104790 kPa, x1 = 0.611
  mass density: 764.72 ± 1.6 kg/m3
337.71 K, 104800 kPa, x1 = 0.492
  mass density: 753.81 ± 1.6 kg/m3
337.71 K, 104800 kPa, x1 = 0.801
  mass density: 789.1 ± 1.5 kg/m3
337.71 K, 109680 kPa, x1 = 0.4
  mass density: 808.11 ± 1.5 kg/m3
337.71 K, 109680 kPa, x1 = 0.8992
  mass density: 808.11 ± 1.5 kg/m3
337.71 K, 109770 kPa, x1 = 0.492
  mass density: 756.37 ± 1.6 kg/m3
337.71 K, 109850 kPa, x1 = 0.611
  mass density: 767.36 ± 1.6 kg/m3
337.71 K, 114650 kPa, x1 = 0.4
  mass density: 810.79 ± 1.5 kg/m3
337.71 K, 114650 kPa, x1 = 0.8992
  mass density: 810.79 ± 1.5 kg/m3
337.71 K, 114850 kPa, x1 = 0.492
  mass density: 758.9 ± 1.6 kg/m3
337.71 K, 114860 kPa, x1 = 0.611
  mass density: 769.89 ± 1.6 kg/m3
337.71 K, 119620 kPa, x1 = 0.4
  mass density: 813.4 ± 1.5 kg/m3
337.71 K, 119620 kPa, x1 = 0.8992
  mass density: 813.4 ± 1.5 kg/m3
337.71 K, 119840 kPa, x1 = 0.492
  mass density: 761.32 ± 1.6 kg/m3
337.71 K, 124840 kPa, x1 = 0.492
  mass density: 763.7 ± 1.7 kg/m3
337.71 K, 124850 kPa, x1 = 0.801
  mass density: 799.52 ± 1.6 kg/m3
337.71 K, 129550 kPa, x1 = 0.4
  mass density: 818.42 ± 1.6 kg/m3
337.71 K, 129550 kPa, x1 = 0.8992
  mass density: 818.42 ± 1.5 kg/m3
337.71 K, 129840 kPa, x1 = 0.801
  mass density: 801.97 ± 1.6 kg/m3
337.71 K, 129850 kPa, x1 = 0.492
  mass density: 766 ± 1.7 kg/m3
337.72 K, 44910 kPa, x1 = 0.4
  mass density: 764.73 ± 1.3 kg/m3
337.72 K, 44910 kPa, x1 = 0.8992
  mass density: 764.73 ± 1.3 kg/m3
337.72 K, 59870 kPa, x1 = 0.4
  mass density: 776.58 ± 1.4 kg/m3
337.72 K, 59870 kPa, x1 = 0.8992
  mass density: 776.58 ± 1.3 kg/m3
337.72 K, 84800 kPa, x1 = 0.4
  mass density: 793.6 ± 1.4 kg/m3
337.72 K, 84800 kPa, x1 = 0.8992
  mass density: 793.6 ± 1.4 kg/m3
337.72 K, 89780 kPa, x1 = 0.4
  mass density: 796.66 ± 1.4 kg/m3
337.72 K, 89780 kPa, x1 = 0.8992
  mass density: 796.66 ± 1.4 kg/m3
337.72 K, 99810 kPa, x1 = 0.611
  mass density: 762.02 ± 1.5 kg/m3
337.72 K, 124590 kPa, x1 = 0.4
  mass density: 815.94 ± 1.5 kg/m3
337.72 K, 124590 kPa, x1 = 0.8992
  mass density: 815.94 ± 1.5 kg/m3
337.72 K, 124870 kPa, x1 = 0.611
  mass density: 774.78 ± 1.6 kg/m3
337.72 K, 129860 kPa, x1 = 0.611
  mass density: 777.16 ± 1.6 kg/m3
347.61 K, 960 kPa, x1 = 0.7024
  mass density: 676.19 ± 1.2 kg/m3
347.61 K, 4840 kPa, x1 = 0.7024
  mass density: 682.43 ± 1.2 kg/m3
347.61 K, 9820 kPa, x1 = 0.7024
  mass density: 689.72 ± 1.2 kg/m3
347.61 K, 14820 kPa, x1 = 0.7024
  mass density: 696.37 ± 1.2 kg/m3
347.61 K, 19810 kPa, x1 = 0.7024
  mass density: 702.46 ± 1.2 kg/m3
347.61 K, 24790 kPa, x1 = 0.7024
  mass density: 708.14 ± 1.3 kg/m3
347.61 K, 29890 kPa, x1 = 0.7024
  mass density: 713.58 ± 1.3 kg/m3
347.61 K, 34890 kPa, x1 = 0.7024
  mass density: 718.57 ± 1.3 kg/m3
347.61 K, 39880 kPa, x1 = 0.7024
  mass density: 723.29 ± 1.3 kg/m3
347.61 K, 44870 kPa, x1 = 0.7024
  mass density: 727.75 ± 1.3 kg/m3
347.61 K, 49860 kPa, x1 = 0.7024
  mass density: 731.98 ± 1.3 kg/m3
347.61 K, 54840 kPa, x1 = 0.7024
  mass density: 736.03 ± 1.4 kg/m3
347.61 K, 59830 kPa, x1 = 0.7024
  mass density: 739.91 ± 1.4 kg/m3
347.61 K, 64820 kPa, x1 = 0.7024
  mass density: 743.63 ± 1.4 kg/m3
347.61 K, 69810 kPa, x1 = 0.7024
  mass density: 747.19 ± 1.4 kg/m3
347.61 K, 74800 kPa, x1 = 0.7024
  mass density: 750.62 ± 1.4 kg/m3
347.61 K, 79780 kPa, x1 = 0.7024
  mass density: 753.92 ± 1.4 kg/m3
347.61 K, 84760 kPa, x1 = 0.7024
  mass density: 757.12 ± 1.5 kg/m3
347.61 K, 89750 kPa, x1 = 0.7024
  mass density: 760.21 ± 1.5 kg/m3
347.61 K, 94730 kPa, x1 = 0.7024
  mass density: 763.2 ± 1.5 kg/m3
